The results in this text go back to patent US10059968B2, “Method for increasing lipid content in microorganisms and modified microorganisms therefrom” (Reliance […], priority 2014, dated 2018).

In the assay the test system is Chlamydomonas reinhardtii CW-15 cells. In words: Nile Red Assay of lipid content in cells grown with cycloheximide. The assay is classed as cell-based. As for the experimental part:
FIG. 4A illustrates the graphical representation of fluorescence observed for Chlamydomonas reinhardtii CW-15 cells (Day 4) in Tris Acetate Phosphate medium grown with and without cycloheximide using Nile Red Assay;
Chemical inhibition of protein synthesis is carried out using cycloheximide. Chlamydomonas reinhardtii CW-15 (Chlamydomonas Resource Center, USA), is grown in the presence of varying amounts of cycloheximide (50 μM to 500 μM) to find out the effect of inhibition of protein synthesis on lipid content. […] FIGS. 4B and 4C depict the Nile Red stained cells of Chlamydomonas reinhardtii CW-15 cells grown without the protein inhibitor and in the presence of the protein inhibitor, respectively.

On to `C[C@@H]1C[C@@H]([C@H](O)CC2CC(=O)NC(=O)C2)C(=O)[C@@H](C)C1` [cycloheximide], for which the “lipid content (Nile Red fluorescence)” value was “increase in lipid content” (Chlamydomonas reinhardtii CW-15 grown with cycloheximide 50 μM to 500 μM vs without, Day 4, Tris Acetate Phosphate medium); “Highest lipid content” (cells grown in the presence of 50 μM of cycloheximide); “decrease in the lipid content” (higher amounts of cycloheximide (more than 200 μM)).
